The text below walks through data of patent US11739063B2, “DREADD actuators” (The United States of America, as represented by the …, priority 2018, dated 2023).

Entries after “also recorded” stand apart in the source; their conditions may differ. Where two headings read alike, the source gives them in different places.

Data set [1] concerns the target T1, hM3Dq (Homo sapiens, UniProt P20309, A239G/Y149C). Put plainly: Calcium accumulation assay (GCaMP6f) in HEK293 cells with hM3Dq. To be noted: for hM3Dq activation (fluorescence, calcium accumulation): cells with hM3Dq versus cells without DREADDs.
Experimental: The changes in fluorescence were read every 18 seconds for 5 minutes.
For a further data set, the target named is T2, hM4Di (Go1) (Homo sapiens, UniProt P08173, A203G/Y113C).
T2 construct: host or cells: HEK-293
T2 sequence (P08173 1-479 Y113C/A203G): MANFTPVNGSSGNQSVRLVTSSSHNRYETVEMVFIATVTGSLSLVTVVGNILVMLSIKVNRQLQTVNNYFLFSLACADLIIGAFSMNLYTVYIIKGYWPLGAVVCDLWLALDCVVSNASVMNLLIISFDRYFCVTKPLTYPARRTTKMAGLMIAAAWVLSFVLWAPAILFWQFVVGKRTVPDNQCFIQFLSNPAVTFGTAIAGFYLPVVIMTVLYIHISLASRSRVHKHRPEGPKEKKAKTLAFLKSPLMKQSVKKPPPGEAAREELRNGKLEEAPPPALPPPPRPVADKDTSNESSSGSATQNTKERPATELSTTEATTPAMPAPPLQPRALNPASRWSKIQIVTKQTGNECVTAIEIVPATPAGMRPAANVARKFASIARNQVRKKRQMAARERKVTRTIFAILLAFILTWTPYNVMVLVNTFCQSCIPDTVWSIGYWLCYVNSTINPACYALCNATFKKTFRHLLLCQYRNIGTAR
Put plainly: BRET assay of Go1 activation in HEK-293 cells with hM4Di. The format is cell-based. To be noted: for EC50: BRET change 5 minutes after addition; for Go1 activation (BRET ratio): cells with hM4Di versus cells without DREADDs. As to the method:
(§1) Bioluminescence resonance energy transfer (“BRET”) assays were performed to detect receptor ligand-induced Gi/o protein activation. […] Forty-eight hours after transfection cells were harvested, washed and resuspended in phosphate-buffered saline (“PBS”). Approximately 200,000 cells/well were distributed in 96-well plates, and 5 μM Coelenterazine H (substrate for luciferase) was added to each well.
(§2) Results were calculated for the BRET change (BRET ratio for the corresponding compound minus BRET ratio in the absence of the compound) 5 minutes after the addition of the compounds.
(Bioluminescence resonance energy transfer reports proximity on the nanometre scale.)

The next data set deals with T3, hM4Di (Gi1) (Homo sapiens, UniProt P08173, A203G/Y113C).
T3 construct: host or cells: HEK-293
T3 sequence (P08173 1-479 Y113C/A203G): T2 sequence (P08173 1-479 Y113C/A203G)
Put plainly: BRET assay of Gi1 activation in HEK-293 cells with hM4Di. The format is cell-based. To be noted: for EC50: BRET change 5 minutes after addition; for Gi1 activation (BRET ratio): cells with hM4Di versus cells without DREADDs. As to the method: as §1, §2

For data set [2], the system named is D1-hM3Dq, D1-hM4Di or WT mice. Put plainly: FDG-PET brain metabolic mapping (DREAMM). It is filed as in vivo. As to the method:
The study was set up as follows. Mice (D1-hM3Dq, D1-hM4Di or WT littermates) were habituated to experimenter handling and fasted 16 hours before the experiment. On the day of the experiment, mice received an IP injection of vehicle (1 ml/kg) and were placed back into their home cages. Ten minutes later, mice were injected (IP) with 11 MBq of 2-deoxy-2-[^18F]fluoro-D-glucose (FDG, Cardinal Health, Westmont, Ill.) and placed back into their home cages. After 30 minutes, mice were anesthetized with 1.5% isoflurane, placed on a custom-made bed of a NANOSCAN small animal PET/CT scanner (Mediso Medical Imaging Systems) and scanned for 20 min on a static acquisition protocol, followed by a CT scan. […] In all cases, the PET data were reconstructed and co-registered to an MRI template as described above. Voxel-based repeated measures with Student's t-test comparing baseline to drug were performed, and the resulting parametric images were filtered for statistically significant (p<0.05) clusters larger than 100 contiguous voxels. All statistical parametric mapping analyses were performed using MATLAB R2016 (Mathworks, Chicago, Ill.) and SPM12 (University College London).

In data set [3] the target is T1, hM3Dq. In words: Radioligand binding assay, [3H]clozapine competition, hM3Dq membranes. Also on record: host or cells: HEK-293. To be noted: for Ki: HEK-293 membranes, 2.5 nM [3H]clozapine, Cheng-Prusoff; for Binding to the tested DREADDs (in words): hM3Dq and hM4Di. As for the experimental part: (§3) HEK-293 cells were transfected with 5 μg/dish of pAAV plasmids encoding for hM3Dq (available from Addgene, Cambridge, Mass., plasmid #89149), hM4Di (available from Addgene, Cambridge, Mass., plasmid #89150) or a control vector and harvested 48 hours after transfection. […] The protein was quantified by the bicinchoninic acid method. […] Microscint-20 scintillation liquid ([…]) was added to the filter plates, plates were incubated overnight at room temperature and radioactivity counts were determined in a MICROBETA^2™ (PerkinElmer, Waltham, Mass.) plate counter with an efficiency of 41%. Competition curves were fitted to a one binding site model and Ki values were calculated using the Cheng-Prusoff equation.

Data set [4] addresses T4, hM4Di (Homo sapiens, UniProt P08173, A203G/Y113C).
T4 sequence (P08173 1-479 Y113C/A203G): T2 sequence (P08173 1-479 Y113C/A203G)
In words: Radioligand binding assay, [3H]clozapine competition, hM4Di membranes. Also on record: host or cells: HEK-293. To be noted: HEK-293 membranes, 2.5 nM [3H]clozapine, Cheng-Prusoff. As to the method: as §3

Data set [5] concerns mice with D1-hM3Dq receptors. Put plainly: Locomotor activity assay (open-field test). The format is in vivo. To be noted: 0.01, 0.1, 1 mg/kg intraperitoneal; compared with clozapine. As for the experimental part:
Transgenic male and female mice (25-30 g, offspring of D1-Cre (heterozygous)×R26-hM3Dq/mCitrine (heterozygous) crossing) either heterozygous for both loci (CRE+, het het) or wild type for D1-Cre (CRE−, wt het) were tested for locomotor activity. The mice were injected (intraperitoneal) with the indicated dose of clozapine, compound I(g), or vehicle (buffered saline).

The test system of data set [6] is DREADDs (hM3Dq, hM4Di) and endogenous clozapine-binding sites. In words: Autoradiography, [3H]clozapine displacement in brain sections of wild-type and transgenic DREADD mice. To be noted: about 3.5 nM [3H]clozapine, WT. As for the experimental part:
Flash frozen brain tissue was sectioned (20 μm) on a cryostat and thaw mounted onto ethanol-washed glass slides. […] Following incubation, the slides were washed with an incubation buffer for 5 mins (2×) followed by a 30 second dip in ice-cold deionized H2O. The slides were then air-dried, placed in a […]™ (GE Healthcare, UK) autoradiography cassette, covered with a BAS-TR2025 Storage Phosphor Screen (GE Healthcare, UK), exposed for 3-5 days, and imaged using a phosphorimager.

Data set [7] addresses T4, hM4Di. Put plainly: hM4Di-driven inhibition of light-evoked neuronal activation. It is filed as in vivo. To be noted: 0.1 mg/kg.

T1 sequence (P20309 whole entry Y149C/A239G): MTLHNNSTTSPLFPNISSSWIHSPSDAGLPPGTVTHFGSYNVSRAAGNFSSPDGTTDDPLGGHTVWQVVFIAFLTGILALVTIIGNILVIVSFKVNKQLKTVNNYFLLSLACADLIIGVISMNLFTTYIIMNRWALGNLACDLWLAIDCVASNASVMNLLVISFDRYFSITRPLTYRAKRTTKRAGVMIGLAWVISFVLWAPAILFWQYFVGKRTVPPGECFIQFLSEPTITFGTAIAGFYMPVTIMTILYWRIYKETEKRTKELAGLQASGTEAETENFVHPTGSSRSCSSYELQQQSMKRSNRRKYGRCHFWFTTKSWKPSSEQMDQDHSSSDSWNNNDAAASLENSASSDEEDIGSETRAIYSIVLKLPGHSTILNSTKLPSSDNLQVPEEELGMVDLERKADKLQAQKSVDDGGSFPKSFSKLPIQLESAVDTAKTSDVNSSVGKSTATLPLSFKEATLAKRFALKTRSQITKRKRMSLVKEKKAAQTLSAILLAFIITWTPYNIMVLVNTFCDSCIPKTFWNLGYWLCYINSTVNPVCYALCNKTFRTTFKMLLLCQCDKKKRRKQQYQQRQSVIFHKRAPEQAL

On to `C[N+]1([O-])CCN(C2=Nc3cc(Cl)ccc3Nc3ccccc32)CC1` [CNO, clozapine n-oxide, reference compound], for which the 50% effective concentration (EC50) was 11.3 nM on hM3Dq [1] (read-out: EC50 value for hM3Dq, mean, calcium accumulation, fluorescence); 3.1 nM on hM4Di (Go1); 13 nM at hM4Di (Gi1).

With `[2H]C([2H])(C)N1CCN(C2=Nc3cc(Cl)ccc3Nc3ccccc32)CC1` [Compound 13, reference compound], the EC50 on hM3Dq [1] turned out to be 1.43 nM; at hM4Di (Go1) it was 0.063 nM; at hM4Di (Gi1), 0.067 nM.

Turning to `c1ccc2c(c1)N=C(N1CCNCC1)c1ccccc1N2` [Compound 21, reference compound], in [2] (WT mice, 1 mg/kg), the “Brain metabolic activity (FDG-PET)” value is recorded as “significant changes in brain metabolic activity; also recorded: decreased metabolic activity of multiple networks”. For the same compound, the EC50 on hM3Dq [1] turned out to be 1.66 nM; at hM4Di (Go1), 1.7 nM; at hM4Di (Gi1), 2.7 nM.

On to `CCN1CCN(C2=Nc3cc(Cl)ccc3Nc3ccc(F)cc32)CC1` [Compound I(a), 8-chloro-11-(4-ethylpiperazin-1-yl)-2-fluoro-5H-dibenzo[b,e][1,4]diazepine], for which the “Recruitment of whole-brain functional networks (FDG-PET)” value in data set [2] (D1-hM3Dq and D1-hM4Di mice, 0.1 mg/kg, n=4 per condition) was “opposing and differential recruitment of whole-brain functional networks”. Moreover, the inhibition constant Ki on hM3Dq [3] was 10.5 nM; on hM4Di [4], 23.5 nM.

As for `CCN1CCN(C2=Nc3ccccc3Nc3ccc(F)cc32)CC1` [Compound I(b), 11-(4-Ethylpiperazin-1-yl)-2-fluoro-5H-dibenzo[b,e][1,4]diazepine], the results for the inhibitory constant (Ki) at hM3Dq [3] and on hM4Di [4] were 33.5 nM and 118 nM, respectively.

Turning to `CCN1CCN(C2=Nc3cc(Cl)ccc3Nc3cc(F)ccc32)CC1` [Compound I(c), 8-Chloro-11-(4-ethylpiperazin-1-yl)-3-fluoro-5H-dibenzo[b,e][1,4]diazepine], the Ki at hM3Dq [3] came to 51.4 nM; on hM4Di [4], 51.3 nM.

On to `CCN1CCN(C2=Nc3ccccc3Nc3cc(F)ccc32)CC1` [Compound I(d), 11-(4-Ethylpiperazin-1-yl)-3-fluoro-5H-dibenzo[b,e][1,4]diazepine], for which the Ki on hM3Dq [3] was 101 nM; at hM4Di [4], 149 nM.

With `CCN1CCN(C2=Nc3ccccc3Nc3cccc(F)c32)CC1` [Compound I(e), 11-(4-Ethylpiperazin-1-yl)-1-fluoro-5H-dibenzo[b,e][1,4]diazepine], the Ki at hM3Dq [3] was 4.8 nM; on hM4Di [4] it was 14.2 nM.

On to `CCN1CCN(C2=Nc3cc(F)ccc3Nc3ccccc32)CC1` [Compound I(f), 11-(4-Ethylpiperazin-1-yl)-8-fluoro-5H-dibenzo[b,e][1,4]diazepine], for which the values for the Ki on hM3Dq [3] and on hM4Di [4] were 23.7 nM and 12.9 nM, respectively.

With `CCN1CCN(C2=Nc3cc(Cl)ccc3Nc3cccc(F)c32)CC1` [Compound I(g), 8-Chloro-11-(4-ethylpiperazin-1-yl)-1-fluoro-5H-dibenzo[b,e][1,4]diazepine], the “Reduction of locomotor activity (distance traveled)” value in data set [5] is “more effective than clozapine at reducing locomotor activity”. At hM3Dq [1], the concentration for a half-maximal effect (EC50) was found to be 5.15 nM and the “hM3Dq activation (fluorescence, calcium accumulation)” value was “effective at activating hM3Dq”. Further, at hM3Dq [3], the affinity, expressed as Ki, was 1.7 nM and the “Binding to the tested DREADDs (in words)” value is reported as “especially effective at binding the tested DREADDs”. For the same compound, at hM4Di (Go1), the 50% effective concentration (EC50) worked out at 0.8 nM and the “Go1 activation (BRET ratio)” value was “activate Go1”. At hM4Di (Gi1), the midpoint of the response, the EC50, lay at 0.24 nM and the “Gi1 activation (BRET ratio)” value is reported as “activate Gi1”. The compound also had a Ki on hM4Di [4] of 8.7 nM.

With `CCN1CCN(C2=Nc3cc(Cl)ccc3Nc3c(F)cccc32)CC1` [Compound I(h), 8-Chloro-11-(4-ethylpiperazin-1-yl)-4-fluoro-5H-dibenzo[b,e][1,4]diazepine], in data set [5], the “Reduction of locomotor activity (distance traveled)” value is given as “more effective than clozapine at reducing locomotor activity”. The “Brain metabolism change (DREAMM)” value in data set [2] (D1-hM3Dq mice, 0.1 mg/kg IP) is “decreased metabolism”; in data set [2] (D1-hM4Di mice, 0.1 mg/kg IP), “increased metabolism”. In data set [2] (WT mice, 0.1 mg/kg IP), the “Brain metabolic changes (FDG-PET)” value is “no significant brain metabolic changes”. Besides, the concentration giving a half-maximal response (EC50) on hM3Dq [1] turned out to be 2.64 nM; at hM4Di (Go1) it was 0.14 nM; on hM4Di (Gi1) it was 0.073 nM. The “hM3Dq activation (fluorescence, calcium accumulation)” value at hM3Dq [1] is listed as “effective at activating hM3Dq”. Moreover, the “Displacement of [3H]clozapine binding” value in data set [6] (at 10 nM) is “selectively displaced [^3H]clozapine binding to DREADDs but not to endogenous sites”; in data set [6] (at 1 μM), “completely displaced [^3H]clozapine binding to both DREADDs and endogenous clozapine-binding sites”. Besides, the Ki at hM3Dq [3] was found to be 1.9 nM; on hM4Di [4], 3.6 nM. In addition, the “Binding to the tested DREADDs (in words)” value on hM3Dq [3] is reported as “especially effective at binding the tested DREADDs”. In addition, the “Go1 activation (BRET ratio)” value on hM4Di (Go1) was “activate Go1”. For the same compound, at hM4Di [7], the “Inhibition of light-evoked neuronal activation” value is “rapid and potent hM4Di-driven inhibition”. For the same compound, the “Gi1 activation (BRET ratio)” value on hM4Di (Gi1) is “activate Gi1”.

Usually EC50 stands for the concentration that produces a half-maximal response. One may read the Ki as the dissociation constant of the complex between target and ligand, obtained from inhibition or displacement. Read a low Ki as a stronger hold on the target.
